The values below come from ChEMBL document CHEMBL1125440, “Synthesis and antiviral activity of acyclic nucleosides with a 3(S),5-dihydroxypentyl or 4(R)-methoxy-3(S),5-dihydroxypentyl side chain” (1992).

Values after ≈ are worked out from the molar mass of the structure shown.

Experiment [1] concerns E6SM. Description: Minimum inhibitory concentration (MIC) required to reduce B2006 strain of TK-HSV-1 induced cytopathogenicity by 50% in E6SM cells. Type of experiment: functional. The settings on record: Homo sapiens. On the technique in general: Damage to the host cells serves as the signal in cytopathic effect assays.
Experiment [2] deals with E6SM. The experiment can be described thus: Minimum inhibitory concentration (MIC) required to reduce VMW 1837 strain of TK-HSV-1 induced cytopathogenicity by 50% in E6SM cells. The class given is functional. To be noted: Homo sapiens.
Experiment [3] relates to E6SM. Description: (§1) Compounds was evaluated for its inhibitory effect on cytopathogenicity of vaccinia virus (VV) in E6SM cells. The class given is functional. The settings on record: Homo sapiens.
Experiment [4] concerns E6SM. Description: Minimum inhibitory concentration (MIC) required to reduce 196 strain of HSV-2 induced cytopathogenicity by 50% in E6SM cells. Type of experiment: functional. To be noted: Homo sapiens.
In experiment [5] the test system is E6SM. Description: Minimum inhibitory concentration (MIC) required to reduce KOS strain of HSV-1 induced cytopathogenicity by 50% in E6SM cells. The class given is functional. The settings on record: Homo sapiens.
For experiment [6], the system named is E6SM. Description: Minimum inhibitory concentration (MIC) required to reduce Lyons strain of HSV-2 induced cytopathogenicity by 50% in E6SM cells. The class given is functional. To be noted: Homo sapiens.
For experiment [7], the system named is E6SM. The experiment can be described thus: Minimum cytotoxic concentration (MCC) required to cause a microscopically detectable alteration of normal cell morphology against E6SM cells. The settings on record: Homo sapiens. Type of experiment: functional.
The subject of experiment [8] is E6SM. The experiment can be described thus: Minimum inhibitory concentration (MIC) required to reduce G strain of HSV-2 induced cytopathogenicity by 50% in E6SM cells. Type of experiment: functional. To be noted: Homo sapiens.
The test system of experiment [9] is E6SM. Description: Minimum inhibitory concentration (MIC) required to reduce McIntyre strain of HSV-1 induced cytopathogenicity by 50% in E6SM cells. Type of experiment: functional. To be noted: Homo sapiens.
The subject of experiment [10] is E6SM. Description: Minimum inhibitory concentration (MIC) required to reduce F strain of HSV-1 induced cytopathogenicity by 50% in E6SM cells. Type of experiment: functional. To be noted: Homo sapiens.
For experiment [11], the system named is E6SM. The experiment can be described thus: (§2) Compounds was evaluated for its inhibitory effect on cytopathogenicity of vesicular stomatitis virus (VSV) in E6SM cells. Type of experiment: functional. The settings on record: Homo sapiens.
The test system of experiment [12] is E6SM. Described as §1. The class given is functional, Homo sapiens.
The test system of experiment [13] is E6SM. The description is as §2. The class given is functional, Homo sapiens.

Regarding `Nc1ncnc2c1ncn2C[C@H](O)CO` [(S)-DHPA], the MIC was 300 µg/mL (≈ 1430 µM) in the experiment on E6SM [1]; greater than 400 µg/mL with E6SM [2]; 70 µg/mL (≈ 335 µM) against E6SM [3]; 300 µg/mL (≈ 1430 µM) against E6SM [4]; 300 µg/mL (≈ 1430 µM) with E6SM [5]; 250 µg/mL (≈ 1190 µM) in the experiment on E6SM [6]. For the same compound, the MIC is 300 µg/mL (≈ 1430 µM) with E6SM [8], 70 µg/mL (≈ 335 µM) against E6SM [9], 70 µg/mL (≈ 335 µM) against E6SM [10] and 70 µg/mL (≈ 335 µM) in the experiment with E6SM [11]. The compound further gave an MCC in the experiment with E6SM [7] greater than 400 µg/mL.

As to `Nc1nc(O)c2ncn(CC[C@H](O)CCO)c2n1`, the MIC against E6SM [1] was greater than 400 µg/mL; in the experiment on E6SM [2], greater than 400 µg/mL; with E6SM [3] it was greater than 400 µg/mL; in the experiment on E6SM [4] it was 20 µg/mL (≈ 79 µM); against E6SM [5], 0.4 µg/mL (≈ 1.58 µM); in the experiment with E6SM [6], 5 µg/mL (≈ 19.7 µM). Further, the MIC is 4 µg/mL (≈ 15.8 µM) against E6SM [8], 0.6 µg/mL (≈ 2.37 µM) against E6SM [9], 0.4 µg/mL (≈ 1.58 µM) against E6SM [10] and greater than 400 µg/mL in the experiment on E6SM [11]. In addition, the MCC in the experiment with E6SM [7] is greater than 400 µg/mL.

For the compound `Nc1nc2c(ncn2COCCO)c(=O)[nH]1` [ACYCLOVIR], the MIC with E6SM [1] amounted to 70 µg/mL (≈ 311 µM); against E6SM [2], 10 µg/mL (≈ 44.4 µM); in the experiment with E6SM [4], 0.015 µg/mL (≈ 0.0666 µM); in the experiment on E6SM [5] it was 0.07 µg/mL (≈ 0.311 µM); against E6SM [6] it was 0.02 µg/mL (≈ 0.0888 µM); in the experiment with E6SM [8], 0.04 µg/mL (≈ 0.178 µM). The MIC against E6SM [9] amounted to 0.02 µg/mL (≈ 0.0888 µM); with E6SM [10], 0.04 µg/mL (≈ 0.178 µM). In the experiment on E6SM [12], the VV was greater than 400. The compound further returned a VSV in the experiment on E6SM [13] greater than 400. The compound also came in with an MCC with E6SM [7] greater than 400 µg/mL.
